The target in assay [1] is PCSK9/LDLR (Homo sapiens) (UniProt Q8NBP7+P01130). Put plainly: Inhibition of PCSK9 (unknown origin) interaction with LDLR (unknown origin) by ELISA. The format is protein assay.
In assay [2] the test system is HepG2. The assay can be described thus: Down regulation of PCSK9 protein expression in human HepG2 cells at 10 to 50 uM incubated for 24 hrs by Western blotting analysis. The format is functional, cell-based. Conditions: dose 10-50 µM. On the technique in general: Immunoblotting shows a protein as a band on a membrane.
The subject of assay [3] is HepG2. Put plainly: Up regulation of LDLR protein expression in human HepG2 cells at 10 to 50 uM incubated for 24 hrs by Western blotting analysis. Type of assay: functional, cell-based. Conditions: dose 10-50 µM.
Assay [4] relates to HepG2. The assay can be described thus: Down regulation of PCSK9 mRNA expression in human HepG2 cells at 50 uM incubated for 24 hrs by SYBR green dye-based qRT-PCR analysis. The format is functional, cell-based. Background: In qPCR the cycle at which signal appears reflects the starting amount.
The nature of assay [5]: Down regulation of PCSK9 mRNA expression in human HepG2 cells incubated for 24 hrs by SYBR green dye-based qRT-PCR analysis. Type of assay: functional, cell-based. As to conditions: HepG2, 24 h.

The values that follow come from ChEMBL document CHEMBL4819031, “Sesquiterpenoids from the Aerial Parts of Salvia plebeia with Inhibitory Activities on Proprotein Convertase Subtilisin/Kexin Type 9 Expression” (J Nat Prod, 2021).

Activity calls are given as the source filed them. The rule behind the calls is not given here.

As usually defined, the IC50 is the concentration that inhibits the measured activity by half. Read a high IC50 as weaker potency in that assay.

PCSK9/LDLR (Homo sapiens), sequence (P01130 22-860 partner limits assumed): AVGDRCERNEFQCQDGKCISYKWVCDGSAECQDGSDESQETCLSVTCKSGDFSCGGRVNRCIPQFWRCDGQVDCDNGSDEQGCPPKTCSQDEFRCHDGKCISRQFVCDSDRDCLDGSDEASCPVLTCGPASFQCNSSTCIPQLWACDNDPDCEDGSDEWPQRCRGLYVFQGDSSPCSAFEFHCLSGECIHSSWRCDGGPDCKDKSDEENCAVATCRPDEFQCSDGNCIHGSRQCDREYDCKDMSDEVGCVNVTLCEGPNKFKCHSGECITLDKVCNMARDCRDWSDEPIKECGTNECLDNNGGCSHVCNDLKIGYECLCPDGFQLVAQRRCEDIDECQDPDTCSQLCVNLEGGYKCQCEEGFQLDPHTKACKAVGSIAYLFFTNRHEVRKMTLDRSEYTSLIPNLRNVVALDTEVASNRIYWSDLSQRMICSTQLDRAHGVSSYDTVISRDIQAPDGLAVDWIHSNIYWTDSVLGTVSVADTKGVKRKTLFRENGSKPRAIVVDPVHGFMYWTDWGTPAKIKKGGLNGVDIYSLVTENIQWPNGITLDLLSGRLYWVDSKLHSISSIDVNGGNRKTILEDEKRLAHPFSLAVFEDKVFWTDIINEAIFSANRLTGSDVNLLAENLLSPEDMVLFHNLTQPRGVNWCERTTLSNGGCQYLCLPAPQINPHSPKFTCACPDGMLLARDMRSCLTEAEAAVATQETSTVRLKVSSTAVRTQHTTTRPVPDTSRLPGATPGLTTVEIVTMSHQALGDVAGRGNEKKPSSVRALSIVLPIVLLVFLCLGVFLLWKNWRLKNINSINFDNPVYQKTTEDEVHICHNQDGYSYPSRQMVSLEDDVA
PCSK9/LDLR (Homo sapiens), sequence (Q8NBP7 31-152 limits assumed): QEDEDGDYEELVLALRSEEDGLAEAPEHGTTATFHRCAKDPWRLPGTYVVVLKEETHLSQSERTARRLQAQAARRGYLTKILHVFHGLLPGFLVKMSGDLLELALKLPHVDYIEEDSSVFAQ
PCSK9/LDLR (Homo sapiens), sequence (Q8NBP7 153-692 limits assumed): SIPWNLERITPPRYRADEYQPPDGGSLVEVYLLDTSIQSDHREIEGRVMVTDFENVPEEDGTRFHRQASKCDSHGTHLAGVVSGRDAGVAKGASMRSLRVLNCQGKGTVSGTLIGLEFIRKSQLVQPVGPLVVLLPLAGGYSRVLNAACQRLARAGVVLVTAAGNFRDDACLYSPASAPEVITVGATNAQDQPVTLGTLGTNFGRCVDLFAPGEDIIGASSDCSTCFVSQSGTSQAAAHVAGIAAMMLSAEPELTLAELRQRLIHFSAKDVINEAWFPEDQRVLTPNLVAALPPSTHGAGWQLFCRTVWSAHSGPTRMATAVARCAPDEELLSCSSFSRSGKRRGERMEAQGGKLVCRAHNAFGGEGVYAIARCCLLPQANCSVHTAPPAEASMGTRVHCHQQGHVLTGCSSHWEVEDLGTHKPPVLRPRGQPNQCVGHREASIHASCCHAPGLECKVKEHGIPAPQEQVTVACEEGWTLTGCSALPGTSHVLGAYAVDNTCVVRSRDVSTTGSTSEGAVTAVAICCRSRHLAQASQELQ

Consider `CC(=O)O[C@H]1C[C@H](O)[C@]2(C)C[C@@H]3OC(=O)C(C)=C3C[C@H]2[C@@H]1C`, for which, in assay [1], the inhibition entry was “inactive”. Regarding `CC(=O)O[C@H]1C(=O)C=C(C)[C@H]2CC3=C(C)C(=O)O[C@@H]3C[C@@]21C`, in assay [1], the inhibition entry is “inactive”.

`CC1=CC(=O)[C@H](O)[C@@]2(C)C=C3OC(=O)C(C)=C3C[C@H]12`: in assay [1], the inhibition result is “inactive”. With `CC1=C2C[C@@H]3[C@@H](C)[C@@H](O)C[C@@H](O)[C@@]3(C)C=C2OC1=O`, the inhibition result in assay [1] is “inactive”. For `CC1=C2C[C@@H]3[C@@H](C)C(=O)C=C[C@@]3(C)C[C@@]2(O)OC1=O`, the outcome in the assay with HepG2 [2], with HepG2 [3] and with HepG2 [4] was Active. Moreover, the inhibition entry in assay [1] is “inactive”. The same compound gave an IC50 in assay [5] of 27.8 µM.

As for `CC(=O)O[C@H]1C(=O)C=C(C)[C@H]2CC3=C(C)C(=O)O[C@]3(O)C[C@@]21C`, the inhibition result in assay [1] is “inactive”. On the same count and under the same terms, with `COC(=O)[C@H](C)[C@H]1C[C@]2(O)C(C)=CC(=O)[C@H](OC(C)=O)[C@]2(C)CC1=O` the entry was “inactive”. Turning to `CC(=O)O[C@H]1C[C@@H](O)[C@@]2(C)C[C@@]3(O)OC(=O)C(C)=C3C[C@@H]2[C@H]1C`, the inhibition entry in assay [1] was “inactive”.

`CC(=O)O[C@@H]1C(=O)C=C(C)[C@]2(O)C/C(=C(\C)C(=O)O)C(O)=C[C@]12C`: the inhibition entry in assay [1] was “inactive”. With `CC(=O)O[C@@H]1C(=O)C=C(C)[C@@H]2CC3=C(C)C(=O)O[C@@H]3C[C@@]12C`, in assay [1], the inhibition result was “inactive”. Consider `CC(=O)O[C@H]1C(=O)C=C(C)[C@H]2CC3=C(C)C(=O)OC3=C[C@@]21C`, for which the inhibition entry in assay [1] is “inactive”. Same read-out and setting: the entry for `COc1c(O)cc2c(c1O)C(=O)C[C@@H](c1ccc(O)cc1)O2` is “inactive”; for `CC(=O)O[C@H]1C[C@@H](O)[C@@]2(C)C[C@H](O)/C(=C(/C)C(=O)O)C[C@@H]2[C@H]1C` it is “inactive”.

For the compound `CO[C@@H]1CC(=O)[C@H](C)[C@H]2C/C(=C(\C)C(=O)O)C[C@@]21C`, the outcome in the assay on HepG2 [2], with HepG2 [3] and in the assay on HepG2 [4] was Active. The inhibition result in assay [1] was “inactive”. The compound further gave an IC50 in assay [5] of 24.4 µM. Compound `COc1ccc2cc3[n+](cc2c1OC)CCc1cc2c(cc1-3)OCO2` [BERBERINE CHLORIDE] showed an IC50 in assay [5] of 13.8 µM. For the compound `COc1c(O)cc2oc(-c3ccc(O)cc3)cc(=O)c2c1O`, the inhibition result in assay [1] was “inactive”. Regarding `CO[C@]12C[C@@]3(C)[C@H](CC1=C(C)C(=O)O2)C(C)=CC(=O)[C@@H]3OC(C)=O`, in assay [1], the inhibition result was “inactive”. Turning to `CC(=O)O[C@H]1C[C@@H](O)[C@@]2(C)C=C3OC(=O)C(C)=C3C[C@@H]2[C@H]1C`, the inhibition result in assay [1] is “inactive”.

As for `CO[C@]12C[C@@]3(C)[C@H](OC(C)=O)C(=O)C=C(C)[C@@H]3CC1=C(C)C(=O)O2`, the inhibition result in assay [1] was “inactive”. The outcome with HepG2 [4] was Active. For the same compound, inhibition in assay [5] was half-maximal at 25.2 µM (IC50). `CO[C@@]12C[C@]3(C)[C@H](O)C[C@H](OC(C)=O)[C@H](C)[C@H]3CC1=C(C)C(=O)O2`: in assay [1], the inhibition result was “inactive”.
